Laboratory results taken from patent US4537777A, “A52688 Antibiotics and process for their production” (priority 1983, dated 1985).
Where two headings read alike, the source gives them in different places.

How the values were obtained:
[1] = system: Trichophyton mentagroprophytes; test: standard disc-plate assay; format: cell-based; details: conc 0.1 mg/ml, disc 6.35 mm, read-out: Zone Diameters
[2] = system: Bacillus stereothermophilus; test: standard disc-plate assay; format: cell-based; details: conc 0.1 mg/ml, disc 6.35 mm, read-out: Zone Diameters
Pseudomonas solanacearum = test: microbe, parasite or virus in culture; format: cell-based; details: Ralstonia solanacearum, read-out: Zone Diameters
[3] = system: Saccharomyces pastorianus; test: standard disc-plate assay; format: cell-based; details: conc 0.1 mg/ml, disc 6.35 mm, ^b overgrowth: factors B, C, F, read-out: Zone Diameters
Mycobacterium avium = test: standard disc-plate assay; format: cell-based; details: conc 0.1 mg/ml, disc 6.35 mm, ^b overgrowth: factor F, read-out: Zone Diameters
Proteus vulgaris = test: standard disc-plate assay; format: cell-based; details: conc 0.1 mg/ml, disc 6.35 mm, ^b overgrowth: factors A, C, E, F, G, read-out: Zone Diameters
Candida albicans = test: standard disc-plate assay; format: cell-based; details: conc 0.1 mg/ml, disc 6.35 mm, read-out: Zone Diameters
Adenocarcinoma 755 = test: murine-transplanted tumor adenocarcinoma 755 in mice; format: in vivo
Procedure: A52688 factors A, C, D, E, F, G, H, J and K and the specified acyl esters of factors A, C, D, E, G, H, J and K are especially useful as oncolytic agents.
Table X summarizes the results of experiments in which mice bearing the murine-transplanted tumor adenocarcinoma 755 were treated with compounds of this invention. In each test the compound was administered by the intraperitoneal route at specified dose levels. The compound was administered over a ten-day period, either on a daily basis or on days one, five and nine, as indicated.

Staphylococcus aureus = test: standard disc-plate assay; format: cell-based; details: conc 0.1 mg/ml, disc 6.35 mm, ^b overgrowth: factor B, read-out: Zone Diameters
Micrococcus luteus = test: standard disc-plate assay; format: cell-based; details: conc 0.1 mg/ml, disc 6.35 mm, read-out: Zone Diameters
acute toxicity in mice = details: mouse, in vivo, ip, intraperitoneal, formulated in aqueous PVP, read-out: Intraperitoneal LD50
Text: ^a Compounds formulated in aqueous PVP
^b Route test compound administered

Salmonella gallinarium = test: standard disc-plate assay; format: cell-based; details: conc 0.1 mg/ml, disc 6.35 mm, read-out: Zone Diameters
Neurospora crassa = test: standard disc-plate assay; format: cell-based; details: conc 0.1 mg/ml, disc 6.35 mm, read-out: Zone Diameters
Escherichia coli = test: standard disc-plate assay; format: cell-based; details: conc 0.1 mg/ml, disc 6.35 mm, read-out: Zone Diameters
Procedure: In Table IX the standard discplate-assay activity of the A52688 factors is summarized. Activity is measured as the diameter (in mm) of the observed zone of inhibition; the diameter of the disc used in each case was 6.35 mm.

Bacillus subtilis = test: standard disc-plate assay; format: cell-based; details: conc 0.1 mg/ml, disc 6.35 mm, read-out: Zone Diameters
Serratia marcescens = test: standard disc-plate assay; format: cell-based; details: conc 0.1 mg/ml, disc 6.35 mm, ^b overgrowth: factor C, read-out: Zone Diameters
Pseudomonas aeruginosa = test: standard disc-plate assay; format: cell-based; details: conc 0.1 mg/ml, disc 6.35 mm, read-out: Zone Diameters

SMILES | zone of inhibition at 100 µg/mL [1] | zone of inhibition at 100 µg/mL [2] | zone of inhibition at 100 µg/mL (Pseudomonas solanacearum) | zone of inhibition at 100 µg/mL [3] | zone of inhibition at 100 µg/mL (Mycobacterium avium) | zone of inhibition at 100 µg/mL (Proteus vulgaris) | zone of inhibition at 100 µg/mL (Candida albicans) | zone of inhibition at 100 µg/mL (Staphylococcus aureus) | zone of inhibition at 100 µg/mL (Micrococcus luteus) | LD50 (acute toxicity in mice) | zone of inhibition at 100 µg/mL (Salmonella gallinarium) | zone of inhibition at 100 µg/mL (Neurospora crassa) | zone of inhibition at 100 µg/mL (Escherichia coli) | zone of inhibition at 100 µg/mL (Bacillus subtilis) | zone of inhibition at 100 µg/mL (Serratia marcescens) | zone of inhibition at 100 µg/mL (Escherichia coli; in minimal medium) | zone of inhibition at 100 µg/mL (Pseudomonas aeruginosa) | also measured
[C-]#[N+]C(=CC1CCC(OC(=O)C=C(C)C)CC1)C(=CC1(OC(C)=O)C=CC(=O)CC1)[N+]#[C-] (stereo not drawn) [Factor F] | 20 mm | 27 mm | 10 mm | 22 mm | 17 mm | 20 mm | 21 mm | 26 mm | 30 mm | 5 mg/kg | 11 mm | 33 mm | 17 mm | 27 mm |  |  |  | Percent Tumor Inhibition (Adenocarcinoma 755; 0.25 mg/kg i.p., daily for 10 days): 51%; Toxic Deaths (Adenocarcinoma 755; 0.25 mg/kg i.p., daily for 10 days, of 10 mice tested (9 for factor E)): 0; Percent Tumor Inhibition (Adenocarcinoma 755; 0.50 mg/kg i.p., daily for 10 days): 69%; Toxic Deaths (Adenocarcinoma 755; 0.50 mg/kg i.p., daily for 10 days, of 10 mice tested (8 for factor E)): 0; Percent Tumor Inhibition (Adenocarcinoma 755; 1.00 mg/kg i.p., daily for 10 days): 91%; Toxic Deaths (Adenocarcinoma 755; 1.00 mg/kg i.p., daily for 10 days, of 10 (factor E) or 9 (factor F) mice tested): 2; Percent Tumor Inhibition (Adenocarcinoma 755; 2.00 mg/kg i.p., daily for 10 days): toxic; Toxic Deaths (Adenocarcinoma 755; 2.00 mg/kg i.p., daily for 10 days, of 10 mice tested): 10
[C-]#[N+]C(=Cc1ccc(O)cc1)C(=CC1CCC(OC(=O)C=C(C)C)CC1)[N+]#[C-] (stereo not drawn) [Factor D] | 21 mm | 21 mm | 17 mm | 13 mm | 13 mm | 12 mm | 19 mm | 18 mm | 26 mm | 0.992 mg/kg | 14 mm | 22 mm | 15 mm | 18 mm | 12 mm | 11 mm | 13 mm | 
[C-]#[N+]C(=CC1CCC(OC(=O)C=C(C)C)CC1)C(=CC1(OC(C)=O)C=CC(O)CC1)[N+]#[C-] (stereo not drawn) [Factor G] | 44 mm | 33 mm | 31 mm | 24 mm | 10 mm | 27 mm | 35 mm | 36 mm | 32 mm | 7.94 mg/kg | 23 mm | 41 mm | 20 mm | 30 mm | 17 mm | 18 mm | 23 mm | Percent Tumor Inhibition (Adenocarcinoma 755; 0.50 mg/kg i.p., days 1, 5 and 9): 10%; Toxic Deaths (Adenocarcinoma 755; 0.50 mg/kg i.p., days 1, 5 and 9, of 10 mice tested): 0; Percent Tumor Inhibition (Adenocarcinoma 755; 0.70 mg/kg i.p., days 1, 5 and 9): 20%; Toxic Deaths (Adenocarcinoma 755; 0.70 mg/kg i.p., days 1, 5 and 9, of 10 mice tested): 0; Percent Tumor Inhibition (Adenocarcinoma 755; 1.00 mg/kg i.p., days 1, 5 and 9): 54%; Toxic Deaths (Adenocarcinoma 755; 1.00 mg/kg i.p., days 1, 5 and 9, of 10 mice tested): 1; Percent Tumor Inhibition (Adenocarcinoma 755; 1.40 mg/kg i.p., days 1, 5 and 9): 72%; Toxic Deaths (Adenocarcinoma 755; 1.40 mg/kg i.p., days 1, 5 and 9, of 10 mice tested): 6; Percent Tumor Inhibition (Adenocarcinoma 755; 2.00 mg/kg i.p., days 1, 5 and 9): 60%; Toxic Deaths (Adenocarcinoma 755; 2.00 mg/kg i.p., days 1, 5 and 9, of 10 mice tested): 7; Percent Tumor Inhibition (Adenocarcinoma 755; 2.80 mg/kg i.p., days 1, 5 and 9): toxic; Toxic Deaths (Adenocarcinoma 755; 2.80 mg/kg i.p., days 1, 5 and 9, of 10 mice tested): 10
[C-]#[N+]C(=CC1=C[C@@H](OC(C)=O)[C@H](O)CC1)C(=CC1CCC(OC(=O)C=C(C)C)CC1)[N+]#[C-] (relative stereo) [Factor H] | 35 mm | 24 mm | 18 mm | 16 mm | 10 mm | 17 mm | 18 mm | 20 mm | 27 mm |  | 16 mm | 33 mm | 15 mm | 16 mm | 10 mm | 10 mm | 11 mm | 
